Data taken from patent US10041085B2, “Plant type related protein, and coding gene and application thereof” (Cotton Research Institute, Chinese Academy of Agricultural …, priority 2013, dated 2018).

What was measured:
Format in all cases: in vivo, Gossypium hirsutum
[1] = test system: mutant pagoda1; experiment: Response of mutant pagoda1 to brassinosteroids (hypocotyledonary axis length); conditions: 500 nM in liquid medium, cotyledon stage to five leaf stage, vs 0.2% ethanol control, average of 20 plants
Experimental: (§1) The mutant pagoda1 and the cotton variety“CRI 24” were identified as below, respectively: • Test Group: cultivating cotton plants of the cotyledon stage in a liquid medium containing 500 nM brassinosteroids (Sigma) to the five leaf stage, to measure the length of its hypocotyledonary axis;
(§2) Control Group: the same as the Test Group, except that brassinosteroids was replaced with an equal volume of an aqueous solution of 0.2% ethanol.
(§3) The length measurements of hypocotyledonary axis of the processed plants from respective groups (an averaged measurement of 20 plants for each group) are shown in FIG. 2. […] For the cotton variety “CRI 24”, after the treatment with brassinosteroids, the hypocotyledonary axis was prolonged by only 16%.

[2] = test system: cotton variety "CRI 24"; experiment: Response of cotton variety CRI 24 to brassinosteroids (hypocotyledonary axis length); conditions: 500 nM in liquid medium, cotyledon stage to five leaf stage, vs 0.2% ethanol control, average of 20 plants
Experimental: as §1, §2, §3

[3] = test system: mutant pagoda1; experiment: Shaping of cotton by local application of brassinosteroids
Source text: Since brassinosteroids cannot be delivered for a long distance in a plant, a local application thereof may promote the growth of the applied part, without an impact on the far part.

brassinosteroids
hypocotyledonary axis prolonged after treatment with brassinosteroids [1]: 270%
hypocotyledonary axis prolonged after treatment with brassinosteroids [2]: 16%
extension of the lateral branch after application to the lateral branch ([3]; 500 nM applied to a lateral branch of a seedling of mutant pagoda1 (FIG. 4B)): significantly extended
growth of the top of the seedling after application to the top ([3]; 500 nM applied to the top of a seedling of mutant pagoda1 (FIG. 4A)): significantly promoting the growth of the top of the seeding
